The text below walks through data of ChEMBL document CHEMBL3526001, “Attenuation of intestinal absorption by major efflux transporters: quantitative tools and strategies using a Caco-2 model” (Drug Metab Dispos, 2011).

In data set [1] the test system is MDCK. Kind of data set: Efflux ratio of permeability from basolateral to apical over apical to basolateral side of MDCK cells expressing BCRP. The settings on record: dog. It is filed as ADME, cell-based, Canis lupus familiaris.
In data set [2] the test system is MDCK. The data set is described as follows: Efflux ratio of permeability from basolateral to apical over apical to basolateral side of MDCK cells expressing MDR1. It is filed as ADME, cell-based, Canis lupus familiaris. The following applies: dog.
In data set [3] the test system is Intestine. Kind of data set: Ratio of intestine AUC in po dosed mdr1 knock out mouse to intestine AUC in po dosed wild type mouse. Type of data set: ADME, organism-based. The following applies: in vivo.
The nature of data set [4]: clinical. The settings on record: human, in vivo.
Description: Fraction absorbed in human
Data set [5] can be described thus: in vitro. The following applies: human, Caco-2.
The subject of data set [6] is P-gp. Kind of data set: in vitro. The following applies: human, Caco-2.
The nature of data set [7]: in vitro. The following applies: human, Caco-2. This is another data set of the same source.
Data set [8] can be described thus: in vitro. The following applies: human, Caco-2. The source holds these as a separate data set.
The species named for data set [9] is Homo sapiens. The settings on record: in vivo.
Description: Fraction absorbed in human

The term efflux ratio denotes a quotient of directional permeabilities that is used to spot active efflux. For `C[C@H]1O[C@@H](O[C@H]2[C@@H](O)C[C@H](O[C@H]3[C@@H](O)C[C@H](O[C@H]4CC[C@@]5(C)[C@H](CC[C@@H]6[C@@H]5C[C@@H](O)[C@]5(C)[C@@H](C7=CC(=O)OC7)CC[C@]65O)C4)O[C@@H]3C)O[C@@H]2C)C[C@H](O)[C@@H]1O` [DIGOXIN], the Ratio in data set [1] was 1.3; in data set [2], 27. The “Ratio AUC” value in [3] was determined as 12. The Fa in data set [4] is 68%. Also, the efflux ratio at 2 h, 10 µM in [5] is 7.5; in [6], 1.

Broadly, the Papp A→B is how fast a substance crosses the layer from the apical side. A lower Papp A→B goes with slow passage. By Papp B→A is commonly meant how fast a substance crosses the layer from the basolateral side. For the compound `COc1cc([C@@H]2c3cc4c(cc3[C@@H](O[C@@H]3O[C@@H]5CO[C@@H](C)O[C@H]5[C@H](O)[C@H]3O)[C@H]3COC(=O)[C@H]23)OCO4)cc(OC)c1O` [ETOPOSIDE], the Ratio in [1] is recorded as 9.7; in [2], 11. In addition, the “Ratio AUC” value in data set [3] is 3.3. For the same compound, the Fa in data set [4] came to 25%. Also, in data set [7], the Papp A→B at 2 h, 10 µM came out at 0.5 ×10⁻⁶ cm/s. This compound came in with a Papp B→A at 2 h, 10 µM in data set [8] of 3 ×10⁻⁶ cm/s. Moreover, the efflux ratio at 2 h, 10 µM in data set [5] stood at 4.8; in data set [6], 1.4.

As for IVERMECTIN, in data set [9], the Fabs is recorded as 56%.
